Experiments:
[1] = test system: Mus musculus; test: Effective dose required to inhibit Staphylococcus aureus in mouse was determined after peroral administration of the compound; (8.1- 14); format: functional; details: po
[2] = test system: Mus musculus; test: Effective dose required to inhibit Staphylococcus aureus in mouse was determined after sub cutaneous administration (0.5-1.4); format: functional

CC[C@H]1OC(=O)C(C)C(=O)[C@H](C)[C@@H](O[C@@H]2O[C@H](C)C[C@H](N(C)C)[C@H]2O)[C@](C)(OC(=O)NC/C=C/c2ccc(-c3ncccn3)cc2)C[C@@H](C)C(=O)[C@H](C)[C@H]2NC(=O)O[C@@]21C (some centres not stated)
ED50 [1]: 10 mg/kg | ED50 [2]: 1 mg/kg
